Columns and labels:
mice [1] = experiment: THC-induced impairment of reality testing; type: in vivo
mice [2] = experiment: Glucocorticoid (corticosterone) secretion in mice; type: in vivo; conditions: mice, highest dose tested 10 mg/kg
Procedure: Blood sampling was performed 2, 5, 8 and 24 h after dosing (n = 3 per sex per dose per sampling time). For blood sampling, mice were anaesthetized under isoflurane, and blood was collected by cardiac puncture. Blood was centrifuged, and plasma was taken and frozen at −80 °C until quantifications of corticosterone by GC–MS/MS.

Adenosine A1 = Adenosine A1 (Homo sapiens, UniProt P30542); experiment: Eurofins binding screen
Sequence of Adenosine A1 (P30542 whole entry): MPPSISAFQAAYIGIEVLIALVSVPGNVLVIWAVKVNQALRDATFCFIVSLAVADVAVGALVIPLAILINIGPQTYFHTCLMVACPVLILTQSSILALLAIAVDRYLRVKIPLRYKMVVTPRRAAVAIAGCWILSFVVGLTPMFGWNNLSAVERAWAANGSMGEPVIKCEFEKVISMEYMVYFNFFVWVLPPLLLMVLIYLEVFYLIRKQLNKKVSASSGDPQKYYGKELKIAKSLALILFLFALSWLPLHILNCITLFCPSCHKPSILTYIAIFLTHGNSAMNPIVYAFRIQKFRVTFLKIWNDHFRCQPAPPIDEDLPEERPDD

Adenosine A2A = Adenosine A2A (Homo sapiens, UniProt P29274); experiment: Eurofins binding screen
Sequence of Adenosine A2A (P29274 whole entry): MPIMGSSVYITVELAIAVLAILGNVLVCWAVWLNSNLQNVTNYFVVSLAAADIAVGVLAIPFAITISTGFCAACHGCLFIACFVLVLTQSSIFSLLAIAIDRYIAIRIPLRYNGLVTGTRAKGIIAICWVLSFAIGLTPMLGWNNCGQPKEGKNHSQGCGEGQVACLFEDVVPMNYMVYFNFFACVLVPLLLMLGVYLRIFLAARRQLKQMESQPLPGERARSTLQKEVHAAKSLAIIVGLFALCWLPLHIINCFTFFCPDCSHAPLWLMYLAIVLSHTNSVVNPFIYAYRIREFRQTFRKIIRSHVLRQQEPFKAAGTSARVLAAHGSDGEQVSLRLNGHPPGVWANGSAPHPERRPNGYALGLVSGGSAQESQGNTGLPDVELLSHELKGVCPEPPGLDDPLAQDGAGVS

Adenosine A3 = Adenosine A3 (Homo sapiens, UniProt P0DMS8); experiment: Eurofins binding screen
Sequence of Adenosine A3 (P0DMS8 whole entry): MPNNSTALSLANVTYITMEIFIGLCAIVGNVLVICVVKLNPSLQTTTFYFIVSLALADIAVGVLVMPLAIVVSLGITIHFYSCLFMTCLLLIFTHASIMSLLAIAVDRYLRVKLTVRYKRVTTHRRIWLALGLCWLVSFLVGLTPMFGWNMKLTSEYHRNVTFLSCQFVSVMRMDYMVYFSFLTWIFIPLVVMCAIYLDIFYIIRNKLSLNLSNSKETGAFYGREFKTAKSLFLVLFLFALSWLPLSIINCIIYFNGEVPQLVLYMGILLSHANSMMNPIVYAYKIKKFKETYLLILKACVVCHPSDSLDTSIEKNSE

Adrenergic alpha1 = experiment: Eurofins binding screen; conditions: 10 µM
Adrenergic alpha2 = experiment: Eurofins binding screen; conditions: 10 µM
Adrenergic beta2 = Adrenergic beta2 (Homo sapiens, UniProt P07550); experiment: Eurofins binding screen
Sequence of Adrenergic beta2 (P07550 whole entry): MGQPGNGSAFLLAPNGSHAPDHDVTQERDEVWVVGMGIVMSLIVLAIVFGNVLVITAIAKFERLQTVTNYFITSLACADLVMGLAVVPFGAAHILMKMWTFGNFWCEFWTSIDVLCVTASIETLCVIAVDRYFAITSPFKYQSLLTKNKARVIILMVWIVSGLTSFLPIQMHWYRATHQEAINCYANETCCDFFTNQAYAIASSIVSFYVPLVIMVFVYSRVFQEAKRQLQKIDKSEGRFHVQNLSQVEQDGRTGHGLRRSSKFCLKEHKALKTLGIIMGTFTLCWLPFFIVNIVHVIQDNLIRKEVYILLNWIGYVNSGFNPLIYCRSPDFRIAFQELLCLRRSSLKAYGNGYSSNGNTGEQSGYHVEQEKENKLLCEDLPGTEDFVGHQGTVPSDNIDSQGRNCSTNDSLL

Angiotensin-II AT2 = Angiotensin-II AT2 (Homo sapiens, UniProt P50052); experiment: Eurofins binding screen
Sequence of Angiotensin-II AT2 (P50052 whole entry): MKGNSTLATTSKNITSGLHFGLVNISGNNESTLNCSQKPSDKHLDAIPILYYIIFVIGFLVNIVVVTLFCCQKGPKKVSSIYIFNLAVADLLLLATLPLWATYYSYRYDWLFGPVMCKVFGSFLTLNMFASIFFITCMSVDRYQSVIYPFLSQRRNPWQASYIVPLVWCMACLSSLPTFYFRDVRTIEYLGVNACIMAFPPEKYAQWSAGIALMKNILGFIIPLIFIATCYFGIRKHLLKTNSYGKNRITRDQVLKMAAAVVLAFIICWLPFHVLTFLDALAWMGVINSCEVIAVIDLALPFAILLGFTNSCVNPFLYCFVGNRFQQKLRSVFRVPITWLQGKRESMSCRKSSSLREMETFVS

Bradykinin B2 = Bradykinin B2 (Homo sapiens, UniProt P30411); experiment: Eurofins binding screen
[3] = molecular target: Calcitonin gene-related peptide CGRP (Homo sapiens, UniProt O60894+Q16602); experiment: Eurofins binding screen
Cannabinoid CB1 = Cannabinoid CB1 (Homo sapiens, UniProt P21554); experiment: Eurofins binding screen
Chemokines CXCR2 (IL-8B) = Chemokines CXCR2 (IL-8B) (Homo sapiens, UniProt P25025); experiment: Eurofins binding screen
Sequence of Chemokines CXCR2 (IL-8B) (P25025 whole entry): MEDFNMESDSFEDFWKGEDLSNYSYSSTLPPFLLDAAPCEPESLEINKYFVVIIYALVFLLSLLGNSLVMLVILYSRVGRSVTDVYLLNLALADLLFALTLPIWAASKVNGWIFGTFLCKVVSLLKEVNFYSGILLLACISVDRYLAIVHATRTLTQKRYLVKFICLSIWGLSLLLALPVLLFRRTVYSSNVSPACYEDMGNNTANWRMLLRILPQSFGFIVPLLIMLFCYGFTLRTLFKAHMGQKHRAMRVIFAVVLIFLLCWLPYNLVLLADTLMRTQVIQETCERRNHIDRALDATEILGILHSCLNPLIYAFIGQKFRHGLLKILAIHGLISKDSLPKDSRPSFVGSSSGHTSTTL

Chemokines CCR1 = Chemokines CCR1 (Homo sapiens, UniProt P32246); experiment: Eurofins binding screen
Sequence of Chemokines CCR1 (P32246 whole entry): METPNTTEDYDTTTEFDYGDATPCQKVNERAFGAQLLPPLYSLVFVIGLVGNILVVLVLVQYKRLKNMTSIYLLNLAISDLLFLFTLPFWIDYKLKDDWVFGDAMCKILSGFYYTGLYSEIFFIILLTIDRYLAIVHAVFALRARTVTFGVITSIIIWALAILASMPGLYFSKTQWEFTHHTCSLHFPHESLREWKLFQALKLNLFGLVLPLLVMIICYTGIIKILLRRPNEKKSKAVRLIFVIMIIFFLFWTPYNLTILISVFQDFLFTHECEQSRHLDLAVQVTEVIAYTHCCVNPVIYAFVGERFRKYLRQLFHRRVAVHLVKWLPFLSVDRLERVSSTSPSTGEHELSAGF

Dopamine D4.4 = Dopamine D4.4 (Homo sapiens, UniProt P21917); experiment: Eurofins binding screen
Endothelin ETB = Endothelin ETB (Homo sapiens, UniProt P24530); experiment: Eurofins binding screen
Galanin GAL1 = Galanin GAL1 (Homo sapiens, UniProt P47211); experiment: Eurofins binding screen
Sequence of Galanin GAL1 (P47211 whole entry): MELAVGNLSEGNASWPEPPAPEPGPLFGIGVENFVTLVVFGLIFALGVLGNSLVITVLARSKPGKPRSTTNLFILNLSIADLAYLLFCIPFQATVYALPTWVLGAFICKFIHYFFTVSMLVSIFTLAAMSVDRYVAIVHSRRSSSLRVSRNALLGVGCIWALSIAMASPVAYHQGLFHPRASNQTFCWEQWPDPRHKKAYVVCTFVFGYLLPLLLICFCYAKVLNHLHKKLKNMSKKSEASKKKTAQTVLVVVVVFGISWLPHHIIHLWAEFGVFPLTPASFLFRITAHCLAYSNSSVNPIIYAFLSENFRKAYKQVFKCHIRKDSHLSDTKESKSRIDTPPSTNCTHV

Galanin GAL2 = Galanin GAL2 (Homo sapiens, UniProt O43603); experiment: Eurofins binding screen
Histamine H2 = Histamine H2 (Homo sapiens, UniProt P25021); experiment: Eurofins binding screen
Muscarinic M1 = Muscarinic M1 (Homo sapiens, UniProt P11229); experiment: Eurofins binding screen
Muscarinic M3 = Muscarinic M3 (Homo sapiens, UniProt P20309); experiment: Eurofins binding screen
Muscarinic M5 = Muscarinic M5 (Homo sapiens, UniProt P08912); experiment: Eurofins binding screen
Neurokinin NK1 = Neurokinin NK1 (Homo sapiens, UniProt P25103); experiment: Eurofins binding screen
Sequence of Neurokinin NK1 (P25103 whole entry): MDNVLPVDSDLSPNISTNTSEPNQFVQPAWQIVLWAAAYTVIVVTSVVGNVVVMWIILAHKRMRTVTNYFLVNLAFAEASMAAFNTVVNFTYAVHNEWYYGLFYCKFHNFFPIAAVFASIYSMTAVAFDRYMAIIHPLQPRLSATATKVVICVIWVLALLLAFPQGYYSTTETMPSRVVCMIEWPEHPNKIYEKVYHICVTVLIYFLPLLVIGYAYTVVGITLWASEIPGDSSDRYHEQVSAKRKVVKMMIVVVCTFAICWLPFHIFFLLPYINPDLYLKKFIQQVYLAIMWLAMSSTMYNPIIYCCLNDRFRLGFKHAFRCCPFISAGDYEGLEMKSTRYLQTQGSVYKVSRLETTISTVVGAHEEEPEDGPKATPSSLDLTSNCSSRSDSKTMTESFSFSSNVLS

Neuropeptide Y Y1 = Neuropeptide Y Y1 (Homo sapiens, UniProt P25929); experiment: Eurofins binding screen
Opioid delta2 (DOP) = Opioid delta2 (DOP) (Homo sapiens, UniProt P41143); experiment: Eurofins binding screen
Prostanoid IP (PGI2) = Prostanoid IP (PGI2) (Homo sapiens, UniProt P43119); experiment: Eurofins binding screen
Sequence of Prostanoid IP (PGI2) (P43119 whole entry): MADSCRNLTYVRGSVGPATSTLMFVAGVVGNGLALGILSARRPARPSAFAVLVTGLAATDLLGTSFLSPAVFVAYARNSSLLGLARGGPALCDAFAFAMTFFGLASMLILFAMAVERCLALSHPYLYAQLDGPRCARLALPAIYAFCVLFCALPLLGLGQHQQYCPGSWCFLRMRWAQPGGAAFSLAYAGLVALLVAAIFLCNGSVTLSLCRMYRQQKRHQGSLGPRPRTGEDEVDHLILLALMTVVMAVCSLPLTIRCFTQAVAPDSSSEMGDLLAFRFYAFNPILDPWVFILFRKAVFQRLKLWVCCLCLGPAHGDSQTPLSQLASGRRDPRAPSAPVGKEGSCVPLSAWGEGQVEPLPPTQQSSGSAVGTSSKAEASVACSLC

Purinergic P2Y = experiment: Eurofins binding screen; conditions: 10 µM
Serotonin 5-HT6 = Serotonin 5-HT6 (Homo sapiens, UniProt P50406); experiment: Eurofins binding screen
Sequence of Serotonin 5-HT6 (P50406 whole entry): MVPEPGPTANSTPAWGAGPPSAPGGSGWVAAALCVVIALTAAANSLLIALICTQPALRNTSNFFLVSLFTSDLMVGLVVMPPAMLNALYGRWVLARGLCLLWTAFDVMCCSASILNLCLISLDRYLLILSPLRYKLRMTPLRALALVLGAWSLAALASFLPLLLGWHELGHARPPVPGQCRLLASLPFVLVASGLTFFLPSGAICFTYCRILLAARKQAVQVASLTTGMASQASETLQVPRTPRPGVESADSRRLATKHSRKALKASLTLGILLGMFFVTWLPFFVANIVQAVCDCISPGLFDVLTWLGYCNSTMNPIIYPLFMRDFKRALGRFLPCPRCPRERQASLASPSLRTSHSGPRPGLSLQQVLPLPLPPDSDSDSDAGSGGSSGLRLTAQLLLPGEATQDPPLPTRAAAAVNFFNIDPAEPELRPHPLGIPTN

Serotonin 5-HT7 = Serotonin 5-HT7 (Homo sapiens, UniProt P34969); experiment: Eurofins binding screen
Potassium channels KV = experiment: Eurofins binding screen; conditions: 10 µM
Potassium channels SKCa = experiment: Eurofins binding screen; conditions: 10 µM
[4] = tested on: Sodium channels Na+-site2; experiment: Eurofins binding screen; conditions: 10 µM
Purinergic channels P2X = experiment: Eurofins binding screen; conditions: 10 µM
Serotonin 5-HT3 = Serotonin 5-HT3 (Homo sapiens, UniProt P46098); experiment: Eurofins binding screen
Dopamine transporter DAT = Dopamine transporter DAT (Homo sapiens, UniProt Q01959); experiment: Eurofins binding screen
[5] = molecular target: Norepinephrine transporter NET (Homo sapiens, UniProt P23975); experiment: Eurofins binding screen
Sequence of Norepinephrine transporter NET (P23975 whole entry): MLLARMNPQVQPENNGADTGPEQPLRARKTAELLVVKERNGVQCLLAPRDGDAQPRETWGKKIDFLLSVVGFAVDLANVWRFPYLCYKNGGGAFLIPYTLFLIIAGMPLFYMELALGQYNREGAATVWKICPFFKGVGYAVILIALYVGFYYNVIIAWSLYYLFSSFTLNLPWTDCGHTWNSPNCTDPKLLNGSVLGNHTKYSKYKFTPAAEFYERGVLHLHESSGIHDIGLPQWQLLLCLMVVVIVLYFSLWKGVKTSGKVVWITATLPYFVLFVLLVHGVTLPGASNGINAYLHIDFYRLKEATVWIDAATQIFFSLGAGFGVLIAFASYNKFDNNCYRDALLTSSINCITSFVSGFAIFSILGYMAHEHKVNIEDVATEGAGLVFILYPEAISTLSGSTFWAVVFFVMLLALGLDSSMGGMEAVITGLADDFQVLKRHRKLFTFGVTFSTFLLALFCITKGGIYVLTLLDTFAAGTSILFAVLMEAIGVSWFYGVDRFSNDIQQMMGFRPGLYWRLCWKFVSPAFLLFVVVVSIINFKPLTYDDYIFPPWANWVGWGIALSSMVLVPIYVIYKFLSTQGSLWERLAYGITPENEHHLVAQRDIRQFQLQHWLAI

[6] = molecular target: PBR (peripheral benzodiazepine receptor) (Rattus norvegicus, UniProt P16257); experiment: Eurofins binding screen; conditions: for Percent inhibition of control specific binding: 10 µM
Sequence of PBR (peripheral benzodiazepine receptor) (P16257 whole entry): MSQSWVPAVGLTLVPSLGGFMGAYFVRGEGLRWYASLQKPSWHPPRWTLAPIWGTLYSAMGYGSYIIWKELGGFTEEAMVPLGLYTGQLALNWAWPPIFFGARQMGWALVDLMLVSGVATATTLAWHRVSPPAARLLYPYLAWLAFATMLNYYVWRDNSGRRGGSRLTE

TNF-alpha = experiment: Eurofins binding screen; conditions: 10 µM
PXR = PXR (Homo sapiens, UniProt O75469); experiment: Eurofins binding screen
[7] = read-out: Percent inhibition of control specific binding

COc1ccc(CO[C@H]2CC[C@@]3(C)C(=CC[C@H]4[C@@H]5CC[C@H](C(C)=O)[C@@]5(C)CC[C@@H]43)C2)cc1 [AEF0117, 3β-(4-methoxybenzyloxy)pregn-5-en-20-one]
THC impairment in reality testing (mice [1]): inhibited | % Inhibition (mice [1]; Impairment of reality testing): 100% | ID100 (mice [1]; Impairment of reality testing): ≤ 0.015 mg/kg | Overall effect: increase in glucocorticoid secretion (mice [2]): No | inhibition at 10 µM (Adenosine A1; [7]): 14% | inhibition at 10 µM (Adenosine A2A; [7]): -3% | inhibition at 10 µM (Adenosine A3; [7]): -20% | Percent inhibition of control specific binding (Adrenergic alpha1): -5% | Percent inhibition of control specific binding (Adrenergic alpha2): 7% | inhibition at 10 µM (Adrenergic beta2; [7]): 4% | inhibition at 10 µM (Angiotensin-II AT2; [7]): -8% | inhibition at 10 µM (Bradykinin B2; [7]): -1% | inhibition at 10 µM [3, 7]: -21% | inhibition at 10 µM (Cannabinoid CB1; [7]): 11% | inhibition at 10 µM (Chemokines CXCR2 (IL-8B); [7]): -1% | inhibition at 10 µM (Chemokines CCR1; [7]): 5% | inhibition at 10 µM (Dopamine D4.4; [7]): -7% | inhibition at 10 µM (Endothelin ETB; [7]): 2% | inhibition at 10 µM (Galanin GAL1; [7]): -4% | inhibition at 10 µM (Galanin GAL2; [7]): -9% | inhibition at 10 µM (Histamine H2; [7]): 3% | inhibition at 10 µM (Muscarinic M1; [7]): -14% | inhibition at 10 µM (Muscarinic M3; [7]): -18% | inhibition at 10 µM (Muscarinic M5; [7]): -5% | inhibition at 10 µM (Neurokinin NK1; [7]): -18% | inhibition at 10 µM (Neuropeptide Y Y1; [7]): -9% | inhibition at 10 µM (Opioid delta2 (DOP); [7]): -4% | inhibition at 10 µM (Prostanoid IP (PGI2); [7]): -4% | Percent inhibition of control specific binding (Purinergic P2Y): 16% | inhibition at 10 µM (Serotonin 5-HT6; [7]): -2% | inhibition at 10 µM (Serotonin 5-HT7; [7]): -1% | Percent inhibition of control specific binding (Potassium channels KV): -5% | Percent inhibition of control specific binding (Potassium channels SKCa): 12% | Percent inhibition of control specific binding [4]: 5% | Percent inhibition of control specific binding (Purinergic channels P2X): -29% | inhibition at 10 µM (Serotonin 5-HT3; [7]): -7% | inhibition at 10 µM (Dopamine transporter DAT; [7]): 0% | inhibition at 10 µM [5, 7]: -5% | inhibition at 10 µM [6, 7]: 4% | Percent inhibition of control specific binding (TNF-alpha): -5% | inhibition at 10 µM (PXR; [7]): 7%

CC(=O)[C@H]1CC[C@H]2[C@@H]3CC=C4C[C@@H](O)CC[C@]4(C)[C@H]3CC[C@]12C [pregnenolone, reference compound]
Percent inhibition of control specific binding (Adenosine A1; 10 µM): -25% | Percent inhibition of control specific binding (Adenosine A2A; 10 µM): -1% | Percent inhibition of control specific binding (Adenosine A3; 10 µM): 11% | Percent inhibition of control specific binding (Adrenergic alpha1): 1% | Percent inhibition of control specific binding (Adrenergic alpha2): -2% | Percent inhibition of control specific binding (Adrenergic beta2; 10 µM): -5% | Percent inhibition of control specific binding (Angiotensin-II AT2; 10 µM): -18% | Percent inhibition of control specific binding (Bradykinin B2; 10 µM): -9% | Percent inhibition of control specific binding ([3]; 10 µM): -12% | Percent inhibition of control specific binding (Cannabinoid CB1; 10 µM): 10% | Percent inhibition of control specific binding (Chemokines CXCR2 (IL-8B); 10 µM): -10% | Percent inhibition of control specific binding (Chemokines CCR1; 10 µM): -10% | Percent inhibition of control specific binding (Dopamine D4.4; 10 µM): 20% | Percent inhibition of control specific binding (Endothelin ETB; 10 µM): 4% | Percent inhibition of control specific binding (Galanin GAL1; 10 µM): -16% | Percent inhibition of control specific binding (Galanin GAL2; 10 µM): 1% | Percent inhibition of control specific binding (Histamine H2; 10 µM): 9% | Percent inhibition of control specific binding (Muscarinic M1; 10 µM): -14% | Percent inhibition of control specific binding (Muscarinic M3; 10 µM): 2% | Percent inhibition of control specific binding (Muscarinic M5; 10 µM): 8% | Percent inhibition of control specific binding (Neurokinin NK1; 10 µM): 17% | Percent inhibition of control specific binding (Neuropeptide Y Y1; 10 µM): -11% | Percent inhibition of control specific binding (Opioid delta2 (DOP); 10 µM): 9% | Percent inhibition of control specific binding (Prostanoid IP (PGI2); 10 µM): -12% | Percent inhibition of control specific binding (Purinergic P2Y): -3% | Percent inhibition of control specific binding (Serotonin 5-HT6; 10 µM): 5% | Percent inhibition of control specific binding (Serotonin 5-HT7; 10 µM): 11% | Percent inhibition of control specific binding (Potassium channels KV): -23% | Percent inhibition of control specific binding (Potassium channels SKCa): -8% | Percent inhibition of control specific binding [4]: 23% | Percent inhibition of control specific binding (Purinergic channels P2X): 13% | Percent inhibition of control specific binding (Serotonin 5-HT3; 10 µM): 6% | Percent inhibition of control specific binding (Dopamine transporter DAT; 10 µM): -12% | Percent inhibition of control specific binding ([5]; 10 µM): -12% | Percent inhibition of control specific binding [6]: > 40% | Percent inhibition of control specific binding ([6]; listed as Preg): 42% | Percent inhibition of control specific binding (TNF-alpha): 4% | Percent inhibition of control specific binding (PXR; 10 µM): 15%

Source: article PMC10287566, “Signaling-specific inhibition of the CB1 receptor for cannabis use disorder: phase 1 and phase 2a randomized trials” (Nature Medicine, 2023)
